In the assay the test system is Candida albicans. Briefly: Antifungal activity against Candida albicans SC5314 assessed as reduction in fungal growth incubated for 24 hrs by CLSI based microdilution analysis. It is filed as functional.

The structures appear in SMILES notation. In brackets after ≈: the same amount, converted by molar mass.

The values below come from ChEMBL document CHEMBL5338795, “Novel Triazoles with Potent and Broad-Spectrum Antifungal Activity In Vitro and In Vivo” (J Med Chem, 2023).

Consider `O[C@](CN1CCN(CCn2ccc3cc(Br)ccc32)CC1)(Cn1cncn1)c1ccc(F)cc1F`, for which the MIC80 was 25 µg/mL (≈ 45.8 µM).

`O=C(c1cc2cc(Br)ccc2oc1=O)N1CCN(CC(O)(Cn2cncn2)c2ccc(F)cc2F)CC1` (stereo unspecified): the MIC80 was found to be 0.125 µg/mL (≈ 0.218 µM).

In the case of `OC(CN1CCN(CCn2ncc3ccccc32)CC1)(Cn1cncn1)c1ccc(F)cc1F` (stereo unspecified), the MIC80 was 0.062 µg/mL (≈ 0.133 µM). The result for `Cc1ccc(S(=O)(=O)N2CCN(CC(O)(Cn3cncn3)c3ccc(F)cc3F)CC2)cc1` (stereo unspecified) reads 0.125 µg/mL (≈ 0.262 µM). Consider `OC(CN1CCN(CCn2ncc3cc(Br)ccc32)CC1)(Cn1cncn1)c1ccc(F)cc1F` (stereo unspecified), for which the MIC80 stood at 0.062 µg/mL (≈ 0.113 µM). The result for `OC(CN1CCN(CCc2ccccc2)CC1)(Cn1cncn1)c1ccc(F)cc1F` (stereo unspecified) reads 0.125 µg/mL (≈ 0.292 µM); that for `O=C(c1cccc2ccccc12)N1CCN(CC(O)(Cn2cncn2)c2ccc(F)cc2F)CC1` (stereo unspecified), 0.25 µg/mL (≈ 0.524 µM). As to `OC(CN1CCN(CCn2ncc3cc(I)ccc32)CC1)(Cn1cncn1)c1ccc(F)cc1F` (stereo unspecified), the MIC80 stood at 0.062 µg/mL (≈ 0.104 µM).

`O=C(c1cc2ccccc2oc1=O)N1CCN(CC(O)(Cn2cncn2)c2ccc(F)cc2F)CC1` (stereo unspecified): the MIC80 was 0.062 µg/mL (≈ 0.125 µM). As to `COc1ccc(S(=O)(=O)N2CCN(CC(O)(Cn3cncn3)c3ccc(F)cc3F)CC2)cc1` (stereo unspecified), the MIC80 worked out at 0.25 µg/mL (≈ 0.507 µM). The result for `OC(CN1CCN(CCn2ccc3cccnc32)CC1)(Cn1cncn1)c1ccc(F)cc1F` (stereo unspecified) reads 0.062 µg/mL (≈ 0.133 µM).

With `COc1ccc2c(cnn2CCN2CCN(CC(O)(Cn3cncn3)c3ccc(F)cc3F)CC2)c1` (stereo unspecified), the MIC80 is 0.062 µg/mL (≈ 0.125 µM).

As for `O=C(c1ccc2c(c1)OCCO2)N1CCN(CC(O)(Cn2cncn2)c2ccc(F)cc2F)CC1` (stereo unspecified), the MIC80 stood at 0.25 µg/mL (≈ 0.515 µM). As for `COc1ccc2c(ccn2CCCCCCCCCN2CCN(CC(O)(Cn3cncn3)c3ccc(F)cc3F)CC2)c1` (stereo unspecified), the MIC80 worked out at 0.5 µg/mL (≈ 0.841 µM). Take `Cc1ccc2c(c1)C(=O)C(=O)N2CCN1CCN(CC(O)(Cn2cncn2)c2ccc(F)cc2F)CC1` (stereo unspecified): the MIC80 was determined as 0.125 µg/mL (≈ 0.245 µM). Consider `O=S(=O)(c1ccc(Cl)cc1)N1CCN(CC(O)(Cn2cncn2)c2ccc(F)cc2F)CC1` (stereo unspecified), for which the MIC80 was found to be 0.125 µg/mL (≈ 0.251 µM). With `O=S(=O)(c1ccc(F)cc1)N1CCN(CC(O)(Cn2cncn2)c2ccc(F)cc2F)CC1` (stereo unspecified), the MIC80 turned out to be 0.125 µg/mL (≈ 0.26 µM). As for `OC(CN1CCN(CCn2ccc3cc(Cl)cnc32)CC1)(Cn1cncn1)c1ccc(F)cc1F` (stereo unspecified), the MIC80 was found to be 0.062 µg/mL (≈ 0.124 µM).

Take `COc1ccc2c(ccn2CCN2CCN(CC(O)(Cn3cncn3)c3ccc(F)cc3F)CC2)c1` (stereo unspecified): the MIC80 came to 0.031 µg/mL (≈ 0.0624 µM).

Take `OC(CN1CCN(CCn2c3ccccc3c3cc(Cl)ccc32)CC1)(Cn1cncn1)c1ccc(F)cc1F` (stereo unspecified): the MIC80 amounted to 0.25 µg/mL (≈ 0.454 µM). In the case of `OC(CN1CCN(CCn2ccc3ccccc32)CC1)(Cn1cncn1)c1ccc(F)cc1F` (stereo unspecified), the MIC80 worked out at 0.031 µg/mL (≈ 0.0664 µM). `O=C(c1ccc2c(c1)OCO2)N1CCN(CC(O)(Cn2cncn2)c2ccc(F)cc2F)CC1` (stereo unspecified): the MIC80 turned out to be 0.25 µg/mL (≈ 0.53 µM).

For `COc1ccc2c(ccn2CCCCCCN2CCN(CC(O)(Cn3cncn3)c3ccc(F)cc3F)CC2)c1` (stereo unspecified), the MIC80 was 0.25 µg/mL (≈ 0.452 µM).

On to `OC(CN1CCN(CCc2cccc3ccccc23)CC1)(Cn1cncn1)c1ccc(F)cc1F` (stereo unspecified), for which the MIC80 is 0.25 µg/mL (≈ 0.523 µM). `O[C@](CN1CCN(CCn2ncc3ccccc32)CC1)(Cn1cncn1)c1ccc(F)cc1F`: the MIC80 came out at 50 µg/mL (≈ 107 µM). Regarding `OC(CN1CCN(CCCCCCCCCn2ccc3cc(Cl)ccc32)CC1)(Cn1cncn1)c1ccc(F)cc1F` (stereo unspecified), the MIC80 is 0.25 µg/mL (≈ 0.417 µM).
